Test results from US20210255205A1, “COMPOSITIONS AND METHODS FOR TREATING METABOLIC DISEASE” (THE REGENTS OF THE UNIVERSITY OF CALIFORNIA, priority 2018, published 2021).
One block for each compound: values may come before it.

Tests used:
[1] = tested on: ASTER domain from Aster-B; assay: 22-NBD-cholesterol binding competition with sterols, Aster-B; details: competitor 10 μM
Description: FIG. 1E: Aster-B334-562 (1-10 μM) was titrated with 10-3000 nM 22-NBD-cholesterol in PBS and fluorescent ligand-binding assays were performed. […] FIG. 1G: Aster-B334-562 was titrated with 22-NBD-cholesterol in the presence of vehicle, estradiol, or various hydroxycholesterol (HC) sterol competitors as indicated (10 μM). Results values are means±SD.
Fluorescent sterol binding assays were carried out as previously described (Petrescu et al., 2001; Wei et al., 2016) in 384-well black flat-bottom plates and equilibrated at room temperature for 1 hour. Measurements were made using a CLARIOstar (BMG LABTECH) microplate reader. The NBD fluorophore was excited with 1(ex)=470 nm and 1(em)=525 and plotted using Prism software. Dissociation constants (KD) were determined by nonlinear regression analysis of dose-response curves.
Aster-A (FIG. 15A), B (FIG. 15B) and C (FIG. 15C) was titrated with 22-NBD-cholesterol in the presence of vehicle or various HC sterol competitors as indicated (3 μM). […] Results values are means±SD.

[2] = target: ASTER domains from Aster-A, -B, and -C; assay: fluorescent NBD-cholesterol binding assay; parameters: species or system mouse; details: NBD-cholesterol 10-3,000 nM, ASTER-domain concentration constant; fit to a single exponential; average over the ASTER domains
Description: For binding and transfer studies Aster domains (Aster-A261-576, Aster-B224-560, Aster-C206-528) were expressed by baculovirus in Sf-9 insect cells with an N-terminal FLAG tag and a C-terminal 6× His Tag (“6× His Tag” disclosed as SEQ ID NO: 11). Proteins were expressed with P3 baculovirus for 48 hours at 27° C. Cells were recovered by centrifugation, lysed by sonication. Insoluble material was pelleted at 16,000×g for 40 minutes. Soluble protein was first purified using a Ni-NTA column (Qiagen, 30210) and eluted with 250 mM imidazole PBS buffer after extensive washing. Following dialysis proteins were purified using FLAG M2 affinity gel (Sigma A2220) columns and eluted with 100 μg/mL 1× FLAG peptide after washing for ten column volumes. Proteins were then either dialyzed to remove the FLAG peptide or purified further by size exclusion chromatography.
Fluorescent sterol binding assays were carried out as previously described (Petrescu et al., 2001; Wei et al., 2016) in 384-well black flat-bottom plates and equilibrated at room temperature for 1 hour. Measurements were made using a CLARIOstar (BMG LABTECH) microplate reader. The NBD fluorophore was excited with 1(ex)=470 nm and 1(em)=525 and plotted using Prism software. Dissociation constants (KD) were determined by nonlinear regression analysis of dose-response curves. […]

[3] = tested on: ASTER domain of Aster-B; assay: GST agarose assay for [^3H]cholesterol binding; parameters: species or system mouse; details: 150 nM protein, 0.003% Triton X-100 in PBS
Description: Reactions were carried out in binding buffer (0.003% Triton X-100 in 1× PBS) containing 150 nM of Aster-B ASTER protein and [^3H]cholesterol. After incubation for 30 min at room temperature, the mixture was incubated with pre-equilibrated of glutathione agarose resin (Pierce PI16100) at 4° C. for 2 h, then loaded onto a column and washed. The protein-bound [^3H]cholesterol was eluted with 10 mM GSH peptide and quantified by scintillation counting.

[4] = tested on: Gramd1b; assay: Gramd1b gene expression by real-time PCR in macrophages; format: cell-based; details: wild-type (WT) but not LXR-null mouse macrophages; 1 μM, 16 h
Source text: Values are means±SEM. Results are representative of three independent experiments. […] Input (Ctrl) served as a control for LXR enrichment. […] FIG. 1D: […] Values are means±SEM. FIG. 1E: […] FIG. 1F: […] Results values are means±SD. FIG. 1G: […] Results values are means±SD. FIG. 1H: […] Values are means±SEM. Total RNA was isolated using TRIzol reagent (Invitrogen) and reverse transcribed with the iScript cDNA synthesis kit (Biorad). cDNA was quantified by real-time PCR using SYBR Green Master Mix (Diagenode) on an ABI 7900 instrument. Gene expression levels were determined by using a standard curve. Each gene was normalized to the housekeeping gene 36B4 and was analyzed in duplicate. Primers used for real-time PCR are available upon request. […] Gramd1b was induced by a synthetic LXR agonist in wild-type (WT) but not LXR-null mouse macrophages (FIG. 1A). […] Gramd1b belongs to a family of highly-conserved genes, which have been designated Gramd1a, -b, and -c in databases. One-to-one orthologs of Gramd1b are present in all vertebrate classes (FIG. 2A). The predicted amino acid sequence of the human protein is 78% identical to that from Oreochromis niloticus (nile tilapia). These genes have not previously been characterized; their structures are incorrectly annotated in databases; and the function of their protein products is unknown. […] The protein products are referred to as Aster-A, -B, and -C.

[5] = tested on: 3T3-L1 cells; assay: cholesteryl ester formation from [^3H]oleate after Aster-A ASO; format: cell-based, murine
Description: FIG. 13A: Immunoblot analysis of membrane (top) and nuclear (bottom) protein levels in 3T3-L1 cells treated for 48 h with control or Aster-A-specific ASO and then for the indicated times with cyclodextrin-cholesterol. Calnexin was used as a membrane loading control and Lamin A/C as a nuclear loading control. FIG. 13B: Real-time PCR analysis of gene expression in 3T3-L1 cells treated for 48 h with control or Aster-A-specific ASO and then for the indicated times with cyclodextrin-cholesterol. ***p<0.001. FIG. 13C: Real-time PCR analysis of Abca1 expression in 3T3-L1 cells treated for 48 h with control or Aster-A-specific ASO and then for the indicated times with cyclodextrin-cholesterol. **p<0.01; ***p<0.001. […] Cells were incubated with [^3H]oleate for the indicated time, CE was isolated by TLC, and the incorporation of label into CE quantified by scintillation counting and normalized to protein (mg). *p<0.05; ***p<0.001. […] FIG. 13H: Serum corticosterone levels measured by ELISA in WT and Aster-B KO mice that were fed ad-lib or fasted overnight (˜16 hours). […]
To assess the effects of Aster deficiency on CE production, cells were incubated in the presence of [^3H]oleate, treated with cyclodextrin-cholesterol complexes, and the incorporation of label into CE was quantified. […]

[6] = tested on: 3T3-L1 cells; assay: Aster-A ASO knockdown, SREBP-2 pathway and gene/protein expression; format: cell-based, murine
Description: FIG. 13A: Immunoblot analysis of membrane (top) and nuclear (bottom) protein levels in 3T3-L1 cells treated for 48 h with control or Aster-A-specific ASO and then for the indicated times with cyclodextrin-cholesterol. Calnexin was used as a membrane loading control and Lamin A/C as a nuclear loading control. FIG. 13B: Real-time PCR analysis of gene expression in 3T3-L1 cells treated for 48 h with control or Aster-A-specific ASO and then for the indicated times with cyclodextrin-cholesterol. ***p<0.001. FIG. 13C: Real-time PCR analysis of Abca1 expression in 3T3-L1 cells treated for 48 h with control or Aster-A-specific ASO and then for the indicated times with cyclodextrin-cholesterol. **p<0.01; ***p<0.001. FIG. 13D: Time course of cholesteryl ester formation in 3T3-L1 fibroblasts treated with control or Aster-A-specific ASO for 48 h. Cells were incubated with [^3H]oleate for the indicated time, CE was isolated by TLC, and the incorporation of label into CE quantified by scintillation counting and normalized to protein (mg). *p<0.05; ***p<0.001. FIG. 13E: Expression levels of the indicated genes in adrenal glands from WT and Aster-B KO mice (mean±SEM; N=6-8 per group). Statistical analysis was performed using Student's t-test. Values are means±SEM. *p<0.05; **p<0.01; ***p<0.001; ****p<0.0001. FIG. 13F: Immunoblot analysis of membrane (top) and nuclear (bottom) protein levels in adrenals from WT and Aster-B KO mice (n=5). Calnexin was used as a membrane loading control and Lamin A/C as a nuclear loading control. FIG. 13G: Serum cholesterol levels in WT and Aster-B KO mice that were fasting for five h (mean±SEM; N=6 per group). FIG. 13H: Serum corticosterone levels measured by ELISA in WT and Aster-B KO mice that were fed ad-lib or fasted overnight (˜16 hours). N=4 per group. Statistical analysis was performed using Student's t-test. Values are mean±SEM. *p<0.05; **p<0.01; ***p<0.001; ****p<0.0001.
Generation 2.5 constrained ethyl ASOs were synthesized as described previously (Seth et al., 2009). For in vitro knockdown studies, control or Aster-A ASO ([…] (SEQ ID NO: 13)) was used. Undifferentiated murine 3T3-L1 cells were plated in 10% FBS DMEM on Day 0. On Day 1 cells were washed and supplemented with 1% LPDS. Cells were then transfected with ASOs using Dharmafect 1 reagent per the manufacturer's recommendations for knockdown studies (Dharmacon, 50 nM final concentration). On Day 2, the medium was changed to fresh DMEM with 1% LPDS, simvastatin (5 μM) and mevalonate (50 μM). On Day 3 cells were treated as described in FIG. 7A and samples were collected. The rate of incorporation of [^3H]oleate into cholesteryl [^3H]oleate was performed on Day 3 as previously described (Goldstein et al., 1983).
The consequence of loss of Aster function for sterol movement from the PM to the ER in cultured cells was investigated. Since Aster-B expression is minimal in most cultured cell lines, knockdown Aster-A expression, which is abundant 3T3-L1 cells, was chosen. When ER cholesterol levels rise, cells respond first by suppressing SREBP-2 cleavage (thereby blocking sterol synthesis) and second by activating ACAT-dependent CE synthesis. Cholesterol movement to the ER following exogenous delivery was assessed by measuring two endpoints: 1. the activity of the SREBP-2 pathway and 2. the formation of cholesterol esters. […] The fact that some suppression of the SREBP-2 pathway at later time points was still observed even with Aster-A ASO was not unexpected, since vesicular sterol transport pathways were presumably still operative.

[7] = target: T1, Aster-B GRAM domain (Mus musculus, UniProt Q80TI0); assay: protein-lipid overlay (PIP Strips); format: binding; details: lipid strip, 100 pmol lipid per spot
T1 construct: B GRAM (Aster-B1-337) was conducted using PIP Strips (Echelon Biosciences); made in house; host or cells: Sf9 insect cells
T1 sequence (Q80TI0 41-377 limits assumed): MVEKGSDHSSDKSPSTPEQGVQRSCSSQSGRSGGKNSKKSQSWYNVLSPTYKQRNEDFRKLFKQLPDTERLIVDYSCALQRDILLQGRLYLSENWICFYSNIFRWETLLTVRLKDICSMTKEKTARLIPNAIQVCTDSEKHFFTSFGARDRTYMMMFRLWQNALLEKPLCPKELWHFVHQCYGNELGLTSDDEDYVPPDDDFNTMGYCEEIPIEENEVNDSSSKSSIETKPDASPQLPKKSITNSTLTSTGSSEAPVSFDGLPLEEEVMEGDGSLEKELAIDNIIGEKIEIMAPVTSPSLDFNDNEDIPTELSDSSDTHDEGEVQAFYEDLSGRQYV
Description: FIG. 9A: Protein-lipid overlay over purified mouse Aster-B GRAM domain with various phospholipid species. PA and PS correspond to phosphatidic acid and phosphatidylserine, respectively. FIG. 9A discloses “6xHis” as SEQ ID NO: 11. FIG. 9B: Purified Aster-B GRAM domain was incubated with sucrose-loaded heavy liposomes containing Dansyl-PE and 80-85% PC or 80-85% PS+/−5% Cholesterol. Liposomes were sedimented, washed, and analyzed by immunoblotting for associated Aster-B Gram protein (anti-His antibody). FIG. 9C: Localization of full-length and B ΔGRAM Aster-B-GFP constructs with plasma membrane (CellMask stain) expressed in HeLa cells in the presence or absence of cholesterol loading imaged by live cell confocal microscopy. […] FIG. 9E: Quantification of Aster-B PH-EGFP intensity in the TIRF plane upon cholesterol loading (left panel; n=2-3 cells, error bars+/−SD). […] TIRF videos recorded 5 slices (slices 3-5 were used to calculate FO) before cholesterol addition. […]
The Aster proteins contain an N-terminal GRAM domain, a structural motif related to the pleckstrin homology domain that is found in glucosyltransferases, Rab-like GTPase activators, myotubularins, and other membrane-associated proteins. […] Given that phosphatidylserine is highly enriched in the inner leaflet of the PM, it was further determined if the Aster-B GRAM domain was associated with phosphatidylserine-containing liposomes.

Compound: CC(C)CCC[C@@H](C)[C@H]1CC[C@H]2[C@@H]3CC=C4[C@@H](O)[C@@H](O)CC[C@]4(C)[C@H]3CC[C@]12C [4β-hydroxycholesterol]
inhibition of binding of NBD-cholesterol to the ASTER domain from Aster-B [1]: comparatively poor competitors

Compound: CC(C)CCC[C@@H](C)[C@H]1CC[C@H]2[C@@H]3[C@@H](O)C=C4C[C@@H](O)CC[C@]4(C)[C@H]3CC[C@]12C [7β-hydroxycholesterol]
inhibition of binding of NBD-cholesterol to the ASTER domain from Aster-B [1]: comparatively poor competitors

Compound: CC(C)CCC[C@](C)(O)[C@H]1CC[C@H]2[C@@H]3CC=C4C[C@@H](O)CC[C@]4(C)[C@H]3CC[C@@]21C [20α-HC, 20α-hydroxycholesterol]
inhibition of binding of NBD-cholesterol to the ASTER domain from Aster-B [1]: inhibited

Compound: CC(C)CC[C@@H](O)[C@@H](C)[C@H]1CC[C@H]2[C@@H]3CC=C4C[C@@H](O)CC[C@]4(C)[C@H]3CC[C@]12C [22R-HC, 22-R-hydroxycholesterol]
inhibition of binding of NBD-cholesterol to the ASTER domain from Aster-B [1]: inhibited

inhibition of binding of NBD-cholesterol to the ASTER domain from Aster-B [1]: comparatively poor competitors
Compound: CC(C)CC[C@H](O)[C@@H](C)[C@H]1CC[C@H]2[C@@H]3CC=C4C[C@@H](O)CC[C@]4(C)[C@H]3CC[C@]12C [22S-hydroxycholesterol]

Compound: C[C@H](CCCC(C)(C)O)[C@H]1CC[C@H]2[C@@H]3CC=C4C[C@@H](O)CC[C@]4(C)[C@H]3CC[C@]12C [25-HC, 25-hydroxycholesterol]
inhibition of binding of NBD-cholesterol to the ASTER domain from Aster-B [1]: inhibited

Compound: C[C@H](CNc1ccc([N+](=O)[O-])c2nonc12)[C@H]1CC[C@H]2[C@@H]3CC=C4C[C@@H](O)CC[C@]4(C)[C@H]3CC[C@]12C [NBD-cholesterol, 22-NBD-cholesterol]
Kd [2]: < 100 nM

direct binding to the ASTER domain of Aster-B [3]: direct binding
Compound: CC(C)CCC[C@@H](C)[C@H]1CC[C@H]2[C@@H]3CC=C4C[C@@H](O)CC[C@]4(C)[C@H]3CC[C@]12C [[^3H]cholesterol]

inhibition of binding of NBD-cholesterol to the ASTER domain from Aster-B [1]: inhibited
Compound: CC(C)CCC[C@@H](C)[C@H]1CC[C@H]2[C@@H]3CC=C4C[C@@H](O)CC[C@]4(C)[C@H]3CC[C@]12C [cholesterol]

Compound: O=C(O)Cc1cccc(OCCCN(Cc2cccc(C(F)(F)F)c2Cl)CC(c2ccccc2)c2ccccc2)c1 [synthetic LXR agonist, GW3965]
Gramd1b expression [4]: induced

Compound: Aster-A-specific ASO: Generation 2.5 constrained ethyl ASO, GTGGAATTTATTCAGG (SEQ ID NO: 13) (Generation 2.5 constrained ethyl (cEt) ASO, modification pattern not given here)
rate at which cholesterol delivered to the PM was incorporated into CE ([5]; [^3H]oleate, cyclodextrin-cholesterol): markedly slower
amount of CE formed relative to control cells ([5]; two hours after cholesterol addition): less than 25%
Gramd1a expression ([6]; ASO 50 nM, 48 h): nearly abolished
LDLR protein levels ([6]; ASO 48 h): increased
SREBP-2 processing ([6]; ASO 48 h): induction
expression of SREBP-2 target genes, including Hmcgr, and Hmgcs ([6]; ASO 48 h): increased
ability of exogenously added cyclodextrin-cholesterol to suppress SREBP-2 processing ([6]; Aster-A silenced cells): clearly delayed
expression of Abca1 (protein and mRNA) ([6]; absence of Aster-A): reciprocally reduced

interaction with purified Aster-B GRAM domain [7]: interacted strongly
Compound: phosphatidic acid [phosphatidic acid (PA)]
